Results on 4 compounds are retold here after ChEMBL document CHEMBL1201862, “PubChem BioAssay data set” (2004).

Experiment [1] is described as follows: cAMP pathway inhibition in counterscreen cell line – TR-FRET cAMP detection, counter-screen for MC4R biased antagonist project, dose response (AID 602305).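 Further: U2OS cells stimulated with forskolin near its EC80 as the cAMP inducer; potency is for inhibition of forskolin-stimulated cAMP signaling.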 Type of experiment: functional, cell-based. (Counterscreens check selectivity or assay interference.)
For the next experiment, the target named is Bcl-2-related protein A1 (Mus musculus, UniProt Q07440). Type of experiment: functional.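 Further: confirmatory dose–response counterscreen on Bfl-1, used to check hits from a UBC13 polyubiquitin inhibitor campaign.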
The next experiment deals with CAAX prenyl protease 1 (Saccharomyces cerevisiae S288c, UniProt P47154). In words: yeast CAAX protease Ste24 inhibition – biochemical, S. cerevisiae, plate reader, cherry-pick, dose response (AID 488815).
Sequence of CAAX prenyl protease 1 (P47154 whole entry): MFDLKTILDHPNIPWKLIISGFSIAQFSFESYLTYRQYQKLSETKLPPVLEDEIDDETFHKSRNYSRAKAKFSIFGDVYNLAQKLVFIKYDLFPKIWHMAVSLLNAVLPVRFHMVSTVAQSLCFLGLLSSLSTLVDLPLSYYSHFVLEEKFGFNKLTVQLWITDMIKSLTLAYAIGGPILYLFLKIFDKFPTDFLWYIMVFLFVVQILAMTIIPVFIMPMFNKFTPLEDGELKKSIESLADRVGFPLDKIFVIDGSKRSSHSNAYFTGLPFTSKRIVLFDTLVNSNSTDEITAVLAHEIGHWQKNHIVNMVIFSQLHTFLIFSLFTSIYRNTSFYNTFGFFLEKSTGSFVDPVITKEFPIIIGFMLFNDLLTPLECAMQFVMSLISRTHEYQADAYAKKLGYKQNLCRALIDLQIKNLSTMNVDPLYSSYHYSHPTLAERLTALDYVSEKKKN
Experiment [2] concerns the target Heat shock protein HSP 90-alpha (Homo sapiens, UniProt P07900). Type of experiment: functional, organism-based.
Experiment [3] has as its target Ribosomal protein S6 kinase alpha-3 (Homo sapiens, UniProt P51812). Type of experiment: functional.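 Further: measured within a kinome-wide profiling panel.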
Experiment [4] has as its target Inhibitor of nuclear factor kappa-B kinase subunit epsilon (Homo sapiens, UniProt Q14164). Kind of experiment: Navigating the Kinome. Panel member name: IKBKE. Type of experiment: functional.
The target in experiment [5] is Dual specificity tyrosine-phosphorylation-regulated kinase 1B (Homo sapiens, UniProt Q9Y463). Kind of experiment: Navigating the Kinome. Panel member name: DYRK1B. Type of experiment: functional.
Experiment [6] has as its target G protein-coupled receptor kinase 5 (Homo sapiens, UniProt P34947). Kind of experiment: Navigating the Kinome. Panel member name: GPRK5. Type of experiment: functional.
Experiment [7] concerns the target Serine/threonine-protein kinase pim-1 (Homo sapiens, UniProt P11309). Type of experiment: functional.
The target of experiment [8] is Protein kinase C theta type (Homo sapiens, UniProt Q04759). In words: Navigating the Kinome. Panel member name: PRKCQ. Type of experiment: functional.
Experiment [9] addresses Cyclin-dependent kinase 8 (Homo sapiens, UniProt P49336). In words: Navigating the Kinome. Panel member name: CDK8. Type of experiment: functional.
For experiment [10], the target named is Testis-specific serine/threonine-protein kinase 2 (Homo sapiens, UniProt Q96PF2). Type of experiment: functional.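 Further: part of the Navigating the Kinome panel, target entry STK22B.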
Sequence of Testis-specific serine/threonine-protein kinase 2 (Q96PF2 whole entry): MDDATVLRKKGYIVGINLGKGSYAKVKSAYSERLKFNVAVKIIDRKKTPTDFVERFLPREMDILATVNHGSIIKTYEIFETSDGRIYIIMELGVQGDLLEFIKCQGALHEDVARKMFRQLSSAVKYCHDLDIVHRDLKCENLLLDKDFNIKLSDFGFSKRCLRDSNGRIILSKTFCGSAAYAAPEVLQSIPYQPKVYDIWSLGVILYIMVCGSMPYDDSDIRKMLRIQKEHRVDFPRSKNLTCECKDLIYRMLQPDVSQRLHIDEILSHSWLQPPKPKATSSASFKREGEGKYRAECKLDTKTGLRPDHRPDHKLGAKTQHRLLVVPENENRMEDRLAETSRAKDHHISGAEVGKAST
Experiment [11] deals with STE20-like serine/threonine-protein kinase (Homo sapiens, UniProt Q9H2G2). Type of experiment: functional.
Experiment [12] concerns the target Maternal embryonic leucine zipper kinase (Homo sapiens, UniProt Q14680). Type of experiment: functional.
The target in experiment [13] is Protein-tyrosine kinase 6 (Homo sapiens, UniProt Q13882). Type of experiment: functional.
The target of experiment [14] is Receptor-type tyrosine-protein kinase FLT3 (Homo sapiens, UniProt P36888). Type of experiment: functional.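 Further: FLT3 was tested as one member of a kinome-wide kinase panel.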
Experiment [15] addresses Serine/threonine-protein kinase DCLK1 (Homo sapiens, UniProt O15075). Type of experiment: functional.
Experiment [16] concerns the target Serine/threonine-protein kinase Chk2 (Homo sapiens, UniProt O96017). Type of experiment: functional.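 Further: CHEK2 entry within a kinome-wide screening panel.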
Experiment [17] has as its target Tyrosine-protein kinase Lck (Homo sapiens, UniProt P06239). Type of experiment: functional.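 Further: lck was assayed as one member of a kinase panel.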
Experiment [18] has as its target Tyrosine-protein kinase Lyn (Homo sapiens, UniProt P07948). Type of experiment: functional.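 Further: lyn as one member of a kinase panel.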
The target of experiment [19] is Tyrosine-protein kinase Fer (Homo sapiens, UniProt P16591). Type of experiment: functional.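 Further: FER tested as one member of a kinome panel.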
In experiment [20] the target is Receptor tyrosine-protein kinase erbB-2 (Homo sapiens, UniProt P04626). In words: Navigating the Kinome. Panel member name: ERBB2. Type of experiment: functional.
Experiment [21] concerns the target Mitogen-activated protein kinase 1 (Homo sapiens, UniProt P28482). Type of experiment: functional.
Experiment [22] deals with Serine/threonine-protein kinase pim-3 (Homo sapiens, UniProt Q86V86). Type of experiment: functional.
In experiment [23] the target is Tyrosine-protein kinase ABL1 (Homo sapiens, UniProt P00519). Type of experiment: functional.
Experiment [24] deals with Serine/threonine-protein kinase BRSK1 (Homo sapiens, UniProt Q8TDC3). Type of experiment: functional.
In a further experiment the target is Misshapen-like kinase 1 (Homo sapiens, UniProt Q8N4C8). Type of experiment: functional.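 Further: kinome panel screen with MINK as the panel member.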
Sequence of Misshapen-like kinase 1 (Q8N4C8 whole entry): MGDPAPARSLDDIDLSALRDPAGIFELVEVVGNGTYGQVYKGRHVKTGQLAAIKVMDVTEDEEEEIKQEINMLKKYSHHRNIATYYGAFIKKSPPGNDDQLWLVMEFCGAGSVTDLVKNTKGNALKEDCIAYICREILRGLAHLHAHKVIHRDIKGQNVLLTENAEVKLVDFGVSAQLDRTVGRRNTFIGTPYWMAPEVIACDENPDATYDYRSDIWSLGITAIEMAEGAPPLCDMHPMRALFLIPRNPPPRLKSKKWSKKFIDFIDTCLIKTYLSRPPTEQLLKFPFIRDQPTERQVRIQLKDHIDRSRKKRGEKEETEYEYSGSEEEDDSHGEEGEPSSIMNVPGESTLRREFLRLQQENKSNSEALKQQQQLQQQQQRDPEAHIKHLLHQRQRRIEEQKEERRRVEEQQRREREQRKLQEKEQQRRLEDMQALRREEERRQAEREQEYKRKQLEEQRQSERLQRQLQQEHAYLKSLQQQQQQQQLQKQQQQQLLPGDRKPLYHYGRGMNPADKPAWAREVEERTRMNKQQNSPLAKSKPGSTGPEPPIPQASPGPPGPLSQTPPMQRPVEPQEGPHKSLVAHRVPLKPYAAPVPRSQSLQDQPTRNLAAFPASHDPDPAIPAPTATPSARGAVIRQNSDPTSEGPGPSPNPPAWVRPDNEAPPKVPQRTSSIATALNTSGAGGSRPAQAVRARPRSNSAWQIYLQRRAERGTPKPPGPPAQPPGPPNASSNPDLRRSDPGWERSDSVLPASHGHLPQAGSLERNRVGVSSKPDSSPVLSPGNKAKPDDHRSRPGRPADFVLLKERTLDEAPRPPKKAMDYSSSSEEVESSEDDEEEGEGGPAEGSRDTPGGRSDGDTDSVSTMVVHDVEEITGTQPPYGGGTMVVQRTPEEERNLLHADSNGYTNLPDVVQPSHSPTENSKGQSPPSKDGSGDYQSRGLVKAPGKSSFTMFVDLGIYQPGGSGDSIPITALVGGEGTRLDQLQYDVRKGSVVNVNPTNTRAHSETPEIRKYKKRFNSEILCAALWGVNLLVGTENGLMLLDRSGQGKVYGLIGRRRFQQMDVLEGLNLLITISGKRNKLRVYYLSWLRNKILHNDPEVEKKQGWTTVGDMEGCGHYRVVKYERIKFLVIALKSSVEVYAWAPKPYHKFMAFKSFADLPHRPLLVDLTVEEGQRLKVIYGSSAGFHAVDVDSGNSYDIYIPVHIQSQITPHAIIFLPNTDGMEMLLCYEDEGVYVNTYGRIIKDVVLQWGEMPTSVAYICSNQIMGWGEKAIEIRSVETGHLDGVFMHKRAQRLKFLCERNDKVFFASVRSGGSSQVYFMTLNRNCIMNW
In experiment [25] the target is Fibroblast growth factor receptor 3 (Homo sapiens, UniProt P22607). Type of experiment: functional.
Sequence of Fibroblast growth factor receptor 3 (P22607 whole entry): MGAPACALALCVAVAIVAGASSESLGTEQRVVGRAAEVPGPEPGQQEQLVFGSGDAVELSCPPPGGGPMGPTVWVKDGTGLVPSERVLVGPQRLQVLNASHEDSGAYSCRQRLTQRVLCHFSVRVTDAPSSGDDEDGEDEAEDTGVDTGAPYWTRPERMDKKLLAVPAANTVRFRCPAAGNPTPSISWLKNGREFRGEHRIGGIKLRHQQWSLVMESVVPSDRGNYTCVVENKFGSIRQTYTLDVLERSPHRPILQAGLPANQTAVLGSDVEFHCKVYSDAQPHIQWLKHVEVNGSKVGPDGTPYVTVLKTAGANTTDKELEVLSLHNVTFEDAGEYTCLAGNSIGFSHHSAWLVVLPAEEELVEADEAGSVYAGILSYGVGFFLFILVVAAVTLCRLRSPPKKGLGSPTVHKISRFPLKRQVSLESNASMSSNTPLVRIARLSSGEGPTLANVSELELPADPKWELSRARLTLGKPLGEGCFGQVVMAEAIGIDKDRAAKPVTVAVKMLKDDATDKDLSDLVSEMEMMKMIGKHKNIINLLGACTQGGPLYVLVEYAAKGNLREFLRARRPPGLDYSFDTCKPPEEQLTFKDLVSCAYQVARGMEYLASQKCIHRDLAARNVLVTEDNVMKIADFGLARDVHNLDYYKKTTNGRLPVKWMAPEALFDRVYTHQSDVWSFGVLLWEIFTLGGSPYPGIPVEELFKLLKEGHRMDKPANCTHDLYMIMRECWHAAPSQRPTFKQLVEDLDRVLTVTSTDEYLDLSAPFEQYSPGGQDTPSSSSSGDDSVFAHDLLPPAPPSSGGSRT
The next experiment addresses Focal adhesion kinase 1 (Homo sapiens, UniProt Q05397). Type of experiment: functional.
Experiment [26] concerns the target Non-receptor tyrosine-protein kinase TYK2 (Homo sapiens, UniProt P29597). Type of experiment: functional.
Experiment [27] has as its target Proto-oncogene tyrosine-protein kinase Src (Homo sapiens, UniProt P12931). Type of experiment: functional.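 Further: SRC entry within a kinome-wide kinase profiling panel.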
Experiment [28] addresses Tyrosine-protein kinase FRK (Homo sapiens, UniProt P42685). Type of experiment: functional.
The target in experiment [29] is Proto-oncogene tyrosine-protein kinase ROS (Homo sapiens, UniProt P08922). Type of experiment: functional.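 Further: ROS1 tested as one member of a kinome-wide kinase panel.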
Experiment [30] concerns the target Calcium/calmodulin-dependent protein kinase type 1 (Homo sapiens, UniProt Q14012). Type of experiment: functional.
In experiment [31] the target is Dual specificity tyrosine-phosphorylation-regulated kinase 3 (Homo sapiens, UniProt O43781). Type of experiment: functional.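 Further: measured as one member of a broad kinase panel.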
The target in experiment [32] is Serine/threonine-protein kinase D2 (Homo sapiens, UniProt Q9BZL6). Type of experiment: functional.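 Further: measured against PRKD2 as one member of a kinome-wide kinase profiling panel.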
The nature of experiment [33]: Luminescence Cell-Based Dose Response HTS to Identify Activators of Luciferase Translation or Activity in H4 […] Cells. [Related pubchem assays: 1829 (Project Summary), 1814 (Primary HTS)]. Type of experiment: functional.
Experiment [34] can be described thus: viability of HCT116 lacking mutant beta-catenin – cell-based, human colon tumor, dose response (AID 1045).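 Further: HCT116 colon tumor cells with beta catenin knocked out; cells exposed to compound for 60 hours.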 Type of experiment: functional.
The test system of another experiment is H4. Kind of experiment: Luminescence Cell-Based Dose Response HTS to Identify Activators of 5'UTR Stem-Loop Driven Prion Protein mRNA Translation in H4 Neuroglioblastoma Cells. [Related pubchem assays: 1829 (Project Summary), 1814 (Primary HTS)]. Type of experiment: functional. The note with it: Homo sapiens.

SMILES strings stand for the structures. Activity calls are given as the source filed them.

Sequence of Mitogen-activated protein kinase 1 (P28482 whole entry): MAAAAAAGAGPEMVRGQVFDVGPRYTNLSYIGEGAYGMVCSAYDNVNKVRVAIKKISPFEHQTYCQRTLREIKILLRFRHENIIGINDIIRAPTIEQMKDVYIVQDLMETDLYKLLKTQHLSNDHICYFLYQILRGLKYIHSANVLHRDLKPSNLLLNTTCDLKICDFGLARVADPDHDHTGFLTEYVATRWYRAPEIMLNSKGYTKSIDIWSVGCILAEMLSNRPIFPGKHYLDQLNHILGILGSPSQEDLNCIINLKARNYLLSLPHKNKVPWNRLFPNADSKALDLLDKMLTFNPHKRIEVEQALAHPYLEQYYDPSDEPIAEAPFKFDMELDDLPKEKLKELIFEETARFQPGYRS
Sequence of Proto-oncogene tyrosine-protein kinase Src (P12931 2-536 limits assumed): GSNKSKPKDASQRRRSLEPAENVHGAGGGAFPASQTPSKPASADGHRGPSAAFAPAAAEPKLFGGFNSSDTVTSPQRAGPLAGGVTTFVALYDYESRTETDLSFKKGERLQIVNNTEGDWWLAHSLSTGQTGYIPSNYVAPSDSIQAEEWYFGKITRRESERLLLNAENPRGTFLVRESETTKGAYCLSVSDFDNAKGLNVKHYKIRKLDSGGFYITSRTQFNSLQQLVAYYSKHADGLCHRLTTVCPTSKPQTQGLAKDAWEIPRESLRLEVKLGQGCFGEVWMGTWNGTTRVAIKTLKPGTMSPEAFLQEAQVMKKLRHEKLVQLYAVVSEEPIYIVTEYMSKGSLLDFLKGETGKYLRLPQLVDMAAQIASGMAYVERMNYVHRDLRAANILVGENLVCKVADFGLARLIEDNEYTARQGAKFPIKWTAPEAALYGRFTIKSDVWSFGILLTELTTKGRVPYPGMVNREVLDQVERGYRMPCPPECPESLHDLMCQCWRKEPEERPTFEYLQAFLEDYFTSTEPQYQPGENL
Sequence of Ribosomal protein S6 kinase alpha-3 (P51812 whole entry): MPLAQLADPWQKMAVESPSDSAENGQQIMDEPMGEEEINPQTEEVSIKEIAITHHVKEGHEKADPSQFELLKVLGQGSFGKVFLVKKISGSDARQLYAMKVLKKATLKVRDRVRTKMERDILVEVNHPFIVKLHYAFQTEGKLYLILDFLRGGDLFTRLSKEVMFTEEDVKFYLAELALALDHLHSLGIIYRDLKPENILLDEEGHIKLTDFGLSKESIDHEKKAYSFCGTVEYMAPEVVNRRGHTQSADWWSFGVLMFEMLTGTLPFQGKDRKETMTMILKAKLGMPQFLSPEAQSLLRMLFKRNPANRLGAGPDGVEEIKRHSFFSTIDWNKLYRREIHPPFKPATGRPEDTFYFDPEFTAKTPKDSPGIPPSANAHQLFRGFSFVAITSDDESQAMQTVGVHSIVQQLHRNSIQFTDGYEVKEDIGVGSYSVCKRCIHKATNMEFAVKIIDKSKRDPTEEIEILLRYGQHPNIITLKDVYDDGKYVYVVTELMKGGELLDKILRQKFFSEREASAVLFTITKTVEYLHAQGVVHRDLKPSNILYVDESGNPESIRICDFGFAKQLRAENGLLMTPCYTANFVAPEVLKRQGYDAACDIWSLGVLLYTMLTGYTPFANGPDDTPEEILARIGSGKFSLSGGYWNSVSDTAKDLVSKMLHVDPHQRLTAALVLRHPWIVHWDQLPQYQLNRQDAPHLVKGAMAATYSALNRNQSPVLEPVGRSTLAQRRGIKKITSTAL
Sequence of Serine/threonine-protein kinase pim-1 (P11309 whole entry): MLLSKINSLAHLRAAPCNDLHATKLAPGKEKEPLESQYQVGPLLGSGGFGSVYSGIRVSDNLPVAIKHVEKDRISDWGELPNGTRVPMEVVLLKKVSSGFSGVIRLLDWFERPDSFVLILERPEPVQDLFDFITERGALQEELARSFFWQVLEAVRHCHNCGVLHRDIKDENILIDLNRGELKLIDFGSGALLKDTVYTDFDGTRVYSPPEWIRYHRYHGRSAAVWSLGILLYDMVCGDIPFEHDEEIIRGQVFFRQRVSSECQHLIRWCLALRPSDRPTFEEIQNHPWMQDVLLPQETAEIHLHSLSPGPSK

On to `CCCCCCCCCCC[N+](C)(C)CC/C=C1/c2ccccc2Sc2ccc(Cl)cc21`, for which the values for the IC50 (in experiment [1]; on Bcl-2-related protein A1) were 25900 nM (inactive) and 8260 nM (active), respectively. The AC50 – broadly, the concentration giving half of the maximal activity seen – is 7070 nM (active) at CAAX prenyl protease 1 and 6770 nM (active) in experiment [2].

`CCn1c(-c2nonc2N)nc2cncc(C(=O)N3CCC(N)C3)c21` (centres undefined): the Ki (in general, a measure of affinity in units of concentration, obtained from inhibition or displacement) in experiment [3] is 39.8 nM (active); in [4], > 3160 nM (inactive); in experiment [5], 31.6 nM (active); in experiment [6], 3980 nM (active); in [7] it was 20 nM (active); in experiment [8], 100 nM (active). For the same compound, the Ki in [9] is 3980 nM (active).

Turning to `Cc1[nH]nc2ccc(-c3cncc(OCC(N)Cc4c[nH]c5ccccc45)c3)cc12` (centres undefined), the Ki in experiment [10] is > 1580 nM (inactive); in experiment [11], > 10000 nM (inactive); in experiment [12], 316 nM (active); in experiment [13], > 2510 nM (inactive); in experiment [14], 316 nM (active); in experiment [15], 6310 nM (active). Also, the Ki was 501 nM (active) in experiment [16]; > 2510 nM (inactive) in experiment [17]; 1580 nM (active) in [18]; > 1580 nM (inactive) in experiment [19]; > 1580 nM (inactive) in experiment [20]; 316 nM (active) in experiment [21]. Also, the Ki is 10 nM (active) in experiment [22]; > 631 nM (inactive) in experiment [23]; 3980 nM (active) in [24]; 20 nM (active) on Misshapen-like kinase 1; > 2000 nM (inactive) in [25]; > 1580 nM (inactive) at Focal adhesion kinase 1. Further, the Ki in experiment [26] is > 2000 nM (inactive); in experiment [27] it was > 2000 nM (inactive); in [28] it was > 2510 nM (inactive); in [29] it was 794 nM (active); in experiment [30] it was > 7940 nM (inactive); in [31], 794 nM (active). Besides, the Ki in experiment [32] is 31.6 nM (active).

As to `COC(=O)c1ccccc1NC1=C/C(=N\S(=O)(=O)c2cccs2)c2ccccc2C1=O`, the EC50 – broadly, the concentration needed to bring the measured effect to its halfway point – in experiment [33] was > 120000 nM (not active); in experiment [34], 8190 nM (active); in the experiment on H4 it was 1890 nM (active).
